According to patent US8680052B1, “Methods of treating, reducing the incidence of, and/or preventing ischemic events” (The Medicines Company, priority 2013, dated 2014):
Where two headings read alike, the source gives them in different places.

System: patients with acute coronary syndromes undergoing PCI
Conditions: 30 days; for All-cause mortality OR (95% CI) / IDR OR (95% CI) / MI OR (95% CI) / Mortality/MI/IDR OR (95% CI) / Mortality/Q-wave MI/IDR OR (95% CI) / Mortality/Q-wave MI/Stent thrombosis OR (95% CI) / Stent thrombosis OR (95% CI) / Q-wave MI OR (95% CI): Cangrelor vs Clopidogrel
Method: Patients were eligible for enrollment if they had stable angina, unstable angina, or non-ST-segment elevation (NSTE) MI with obstructive coronary artery disease and were scheduled to undergo PCI.
The infusion began within 30 minutes prior to PCI and continued for at least 2 hours or until the conclusion of the index procedure, whichever was longer. At the treating physician's discretion, the infusion could be continued for 4 hours.
All patients received aspirin 75-325 mg per local site standards. Adjunctive anticoagulants (unfractionated heparin, low molecular weight heparin, bivalirudin, or fondaparinux) and the procedural use of glycoprotein IIb/IIIa inhibitors were determined by the treating physician.
The primary efficacy endpoint was the 48-hour composite of all-cause mortality, MI, or ischemia-driven revascularization. Prespecified secondary efficacy endpoints included the composite of mortality or MI at 48 hours and 30 days; the composite of mortality, MI, or ischemia-driven revascularization at 30 days; the components of the composite endpoints at 48 hours and 30 days; stroke at 48 hours; abrupt closure, threatened abrupt closure, need for urgent coronary artery bypass grafting, or unsuccessful procedure during the index PCI; acute (24 hours) and 48 hours stent thrombosis; and all-cause mortality at 6 months and 1 year.
Rates of MI and ischemia-driven revascularization up to 30 days following the index procedure were assessed. Ischemia-driven revascularization was defined as symptoms of myocardial ischemia leading to urgent (within 24 hours of the last episode of ischemia) revascularization, which must have occurred after the index procedure concluded (i.e., guidewire removal). New electrocardiographic changes, acute pulmonary edema, ventricular arrhythmias, or hemodynamic instability could also constitute evidence of ischemia.
MI was defined by a new Q wave (duration >0.03 seconds) in two contiguous electrocardiographic leads or elevations in creatine kinase (CK) and CK-MB, including a rise of CK-MB≧3 times the local upper limit or normal and, when biomarkers were elevated prior to PCI, an additional 50% above baseline. One baseline troponin measurement was required for patients undergoing urgent PCI. Measurements of CK-MB were obtained at 2, 10, 17, and 24 hours post-PCI.
The primary efficacy analysis was to be determined in the modified intent-to-treat (mITT) population, defined as all randomized patients (excluding STEMI cohort) who received at least one dose of study drug and underwent the index PCI. The safety population consisted of all randomized patients who received any study drug. Patients in the safety analyses were assigned to a treatment arm based on treatment received, not as randomized.

CSCCNc1nc(SCCC(F)(F)F)nc2c1ncn2[C@@H]1O[C@H](COP(=O)(O)OP(=O)(O)C(Cl)(Cl)P(=O)(O)O)[C@@H](O)[C@H]1O [Cangrelor, cangrelor]
Stent thrombosis (ITT): 27 (0.6) no. (%) | All-cause mortality (ITT With STEMI): 8 (1.7) no. (%) | IDR (ITT With STEMI): 16 (3.4) no. (%) | MI (ITT With STEMI): 20 (4.2) no. (%) | Mortality/MI/IDR (ITT With STEMI): 36 (7.6) no. (%) | Mortality/Q-wave MI/IDR (ITT With STEMI): 23 (4.9) no. (%) | Mortality/Q-wave MI/Stent thrombosis (ITT With STEMI): 14 (3.0) no. (%) | Q-wave MI (ITT With STEMI): 2 (0.4) no. (%) | Stent thrombosis (ITT With STEMI): 7 (1.5) no. (%) | All-cause mortality OR (95% CI) (ITT With STEMI): 0.524 (0.222, 1.235) | IDR OR (95% CI) (ITT With STEMI): 1.139 (0.557, 2.331) | MI OR (95% CI) (ITT With STEMI): 1.263 (0.653, 2.441) | Mortality/MI/IDR OR (95% CI) (ITT With STEMI): 0.929 (0.582, 1.480) | Mortality/Q-wave MI/IDR OR (95% CI) (ITT With STEMI): 0.778 (0.447, 1.355) | Mortality/Q-wave MI/Stent thrombosis OR (95% CI) (ITT With STEMI): 0.560 (0.289, 1.085) | Stent thrombosis OR (95% CI) (ITT With STEMI): 0.741 (0.280, 1.962) | All-cause mortality (ITT Without STEMI): 32 (0.8) no. (%) | IDR (ITT Without STEMI): 46 (1.2) no. (%) | MI (ITT Without STEMI): 298 (7.6) no. (%) | Mortality/MI/IDR (ITT Without STEMI): 345 (8.8) no. (%) | Mortality/Q-wave MI/IDR (ITT Without STEMI): 79 (2.0) no. (%) | Mortality/Q-wave MI/Stent thrombosis (ITT Without STEMI): 54 (1.4) no. (%) | Q-wave MI (ITT Without STEMI): 7 (0.2) no. (%) | Stent thrombosis (ITT Without STEMI): 20 (0.5) no. (%) | All-cause mortality OR (95% CI) (ITT Without STEMI): 1.027 (0.626, 1.687) | IDR OR (95% CI) (ITT Without STEMI): 0.846 (0.569, 1.257) | MI OR (95% CI) (ITT Without STEMI): 1.081 (0.912, 1.281) | Mortality/MI/IDR OR (95% CI) (ITT Without STEMI): 1.037 (0.886, 1.215) | Mortality/Q-wave MI/IDR OR (95% CI) (ITT Without STEMI): 0.891 (0.656, 1.211) | Mortality/Q-wave MI/Stent thrombosis OR (95% CI) (ITT Without STEMI): 0.959 (0.658, 1.397) | Q-wave MI OR (95% CI) (ITT Without STEMI): 0.463 (0.189, 1.138) | Stent thrombosis OR (95% CI) (ITT Without STEMI): 0.995 (0.535, 1.852) | All-cause mortality OR (95% CI) (ITT): 0.852 (0.558, 1.301) | IDR OR (95% CI) (ITT): 0.899 (0.637, 1.271) | MI OR (95% CI) (ITT): 1.095 (0.929, 1.291) | Mortality/MI/IDR OR (95% CI) (ITT): 1.026 (0.884, 1.192) | Mortality/Q-wave MI/IDR OR (95% CI) (ITT): 0.856 (0.655, 1.119) | Mortality/Q-wave MI/Stent thrombosis OR (95% CI) (ITT): 0.829 (0.599, 1.146) | Q-wave MI OR (95% CI) (ITT): 0.601 (0.263, 1.374) | Stent thrombosis OR (95% CI) (ITT): 0.902 (0.535, 1.519) | All-cause mortality (MITT): 40 (0.9) no. (%) | IDR (MITT): 60 (1.4) no. (%) | MI (MITT): 315 (7.3) no. (%) | Mortality/MI/IDR (MITT): 376 (8.7) no. (%) | Mortality/Q-wave MI/IDR (MITT): 100 (2.3) no. (%) | Mortality/Q-wave MI/Stent thrombosis (MITT): 68 (1.6) no. (%) | Q-wave MI (MITT): 9 (0.2) no. (%) | Stent thrombosis (MITT): 27 (0.6) no. (%) | All-cause mortality (MITT With STEMI): 8 (1.8) no. (%) | IDR (MITT With STEMI): 16 (3.7) no. (%) | MI (MITT With STEMI): 18 (4.1) no. (%) | Mortality/MI/IDR (MITT With STEMI): 34 (7.8) no. (%) | Mortality/Q-wave MI/IDR (MITT With STEMI): 23 (5.3) no. (%) | Mortality/Q-wave MI/Stent thrombosis (MITT With STEMI): 14 (3.2) no. (%) | Q-wave MI (MITT With STEMI): 2 (0.5) no. (%) | Stent thrombosis (MITT With STEMI): 7 (1.6) no. (%) | All-cause mortality OR (95% CI) (MITT With STEMI): 0.732 (0.292, 1.838) | IDR OR (95% CI) (MITT With STEMI): 1.165 (0.561, 2.416) | MI OR (95% CI) (MITT With STEMI): 1.146 (0.577, 2.278) | Mortality/MI/IDR OR (95% CI) (MITT With STEMI): 1.015 (0.619, 1.665) | Mortality/Q-wave MI/IDR OR (95% CI) (MITT With STEMI): 0.929 (0.519, 1.663) | Mortality/Q-wave MI/Stent thrombosis OR (95% CI) (MITT With STEMI): 0.665 (0.334, 1.325) | Stent thrombosis OR (95% CI) (MITT With STEMI): 0.705 (0.266, 1.869) | All-cause mortality (MITT Without STEMI): 32 (0.8) no. (%) | IDR (MITT Without STEMI): 44 (1.1) no. (%) | MI (MITT Without STEMI): 297 (7.7) no. (%) | Mortality/MI/IDR (MITT Without STEMI): 342 (8.9) no. (%) | Mortality/Q-wave MI/IDR (MITT Without STEMI): 77 (2.0) no. (%) | Mortality/Q-wave MI/Stent thrombosis (MITT Without STEMI): 54 (1.4) no. (%)
